Experimental findings from ChEMBL document CHEMBL1201862, “PubChem BioAssay data set” (2004) are described below.

Molecules are shown by their SMILES.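 Five concentrations, 48 hours, 96-well plates. GI50 = concentration required for 50% inhibition of growth.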 Active and inactive are the calls of the source. No stated cut-off is given here; in the data, active = GI50 up to about 1.1 µM and inactive = higher.

A word on the GI50: it is the concentration that inhibits growth by half.

Test systems include HCT-116; OVCAR-4; K562; RXF 393; SK-MEL-2; SF-539; EKVX; MOLT-4; SR; TK-10; SK-OV-3; UACC-62; SNB-19; A549; RPMI-8226; HOP-92; CAKI-1.
Common to all, as to assay: DTP human tumour cell line panel, 48 h

Take `CCOC(=O)c1cnc2c(ccc3ncccc32)c1OCC`: the GI50 with HCT-116 is > 100 µM (inactive); in the test with OVCAR-4, > 100 µM (inactive); with K562 it was > 100 µM (inactive); in the test on RXF 393, 82 µM (inactive); in the test with SK-MEL-2, > 100 µM (inactive); with SF-539, > 100 µM (inactive). The GI50 is 84.3 µM (inactive) in the test with EKVX; 71.8 µM (inactive) in the test with MOLT-4; 70.6 µM (inactive) with SR; 60.5 µM (inactive) with TK-10; > 100 µM (inactive) with SK-OV-3; > 100 µM (inactive) in the test with UACC-62. In addition, the GI50 in the test on SNB-19 and in the test with A549 was > 100 µM (inactive) each time.
Turning to `O=C1NC2C(CCO)CC=C[C@H]2c2cc3c(cc21)OCO3` (stereo not given in full), the GI50 in the test with HCT-116, in the test with K562, with RXF 393, with SF-539, with EKVX and with MOLT-4 was > 100 µM (inactive) throughout. The GI50 with SR, in the test on TK-10, with SK-OV-3, in the test on UACC-62, with RPMI-8226 and with SNB-19 was > 100 µM (inactive) throughout. Further, in the test with A549, the GI50 was > 100 µM (inactive).
As to `COC(=O)C(C(=O)OC)C1CCCC(=O)C1` (stereo not given), the GI50 was > 100 µM (inactive) with HCT-116; > 100 µM (inactive) with OVCAR-4; > 100 µM (inactive) with K562; > 100 µM (inactive) in the test on RXF 393; < 0.01 µM (active) in the test on SK-MEL-2; > 100 µM (inactive) with SF-539. Also, the GI50 with HOP-92, in the test with EKVX, with MOLT-4, in the test with SR, in the test with TK-10 and in the test with SK-OV-3 was > 100 µM (inactive) throughout. For the same compound, the GI50 with UACC-62, with RPMI-8226, in the test with SNB-19 and in the test with A549 was > 100 µM (inactive) each time.
For `COc1cc(C)c(O)c(C(=O)O)c1`, the GI50 in the test with HCT-116, with CAKI-1, with OVCAR-4, in the test on K562, in the test with RXF 393 and with SK-MEL-2 was > 100 µM (inactive) throughout. The GI50 in the test with MOLT-4, in the test on SR, in the test with TK-10, in the test on SK-OV-3, with UACC-62 and with SNB-19 was > 100 µM (inactive) each time. The GI50 in the test on A549 was > 100 µM (inactive).
On to `C/C(=N/O)C1CC=C(S(=O)(=O)c2ccccc2)C1` (stereo not given), for which the GI50 in the test on CAKI-1, in the test with OVCAR-4, with K562, in the test on RXF 393, with SK-MEL-2 and in the test on SF-539 was > 100 µM (inactive) in each case. Further, the GI50 in the test with HOP-92 is > 100 µM (inactive); with MOLT-4, > 100 µM (inactive); with SR, > 100 µM (inactive); with TK-10 it was > 100 µM (inactive); with SK-OV-3, > 100 µM (inactive); in the test with UACC-62, > 10 µM (inactive). Also, the GI50 in the test with RPMI-8226, with SNB-19 and in the test with A549 was > 100 µM (inactive) each time.
`CC(C)(C)C1CCC2c3c([nH]c4ncccc34)C3C(=O)N(c4ccccc4)C(=O)C3C2C1` (stereo not given): the GI50 with HCT-116, with CAKI-1, in the test with OVCAR-4, in the test on K562, in the test with RXF 393 and in the test with SK-MEL-2 was > 100 µM (inactive) throughout. In addition, the GI50 in the test with SF-539 is > 100 µM (inactive); in the test on HOP-92, > 100 µM (inactive); in the test on EKVX it was > 100 µM (inactive); with MOLT-4 it was > 100 µM (inactive); in the test on SR it was 36.1 µM (inactive); in the test on TK-10, > 100 µM (inactive). Also, the GI50 in the test with SK-OV-3, with UACC-62, with RPMI-8226, in the test on SNB-19 and in the test with A549 was > 100 µM (inactive) in each case.
As to `Cc1cc(C)nc(NS(=O)(=O)c2ccc(NC(=O)c3cccc4c(=O)c5ccccc5[nH]c34)cc2)n1`, the GI50 in the test on HCT-116 is 17 µM (inactive); with CAKI-1 it was 33 µM (inactive); with OVCAR-4, 18.5 µM (inactive); in the test on K562, 18.6 µM (inactive); in the test with SK-MEL-2, > 10 µM (inactive); with SF-539, 18.4 µM (inactive). In addition, the GI50 in the test on HOP-92 is 20 µM (inactive); in the test with EKVX it was 26.5 µM (inactive); with MOLT-4, 30.5 µM (inactive); with SR, 24.8 µM (inactive); in the test with TK-10, 25.9 µM (inactive); in the test on SK-OV-3, 0.18 µM (active). The GI50 was 20 µM (inactive) in the test on UACC-62, 10.9 µM (inactive) in the test with RPMI-8226, 27.2 µM (inactive) with SNB-19 and 22.7 µM (inactive) in the test with A549.
With `COC(=O)c1cc(-c2ccc(OC)c(OC)c2)oc1-c1ccc(OC)c(OC)c1`, the GI50 in the test on HCT-116 was 32.4 µM (inactive); with CAKI-1 it was 54.7 µM (inactive); in the test on OVCAR-4, 62.5 µM (inactive); in the test with K562, 80.9 µM (inactive); in the test with RXF 393, 19.1 µM (inactive); in the test on SK-MEL-2, 44.9 µM (inactive). In addition, the GI50 is 21.2 µM (inactive) in the test with SF-539; 13.4 µM (inactive) in the test with HOP-92; 52.4 µM (inactive) with EKVX; 32.7 µM (inactive) in the test with MOLT-4; 28.6 µM (inactive) in the test on SR; 53.8 µM (inactive) with TK-10. The GI50 in the test on SK-OV-3 was 38.9 µM (inactive); in the test with UACC-62, 70.1 µM (inactive); with RPMI-8226, 33.3 µM (inactive); with A549, 44 µM (inactive).
Take `CCC(O)CCCCCCCCCCCCCCC(=O)O` (stereo not given): the GI50 in the test with HCT-116, in the test on CAKI-1, in the test with OVCAR-4, with K562, in the test on RXF 393 and with SK-MEL-2 was > 100 µM (inactive) in each case. The GI50 is > 100 µM (inactive) with SF-539; > 100 µM (inactive) in the test with HOP-92; > 100 µM (inactive) in the test on EKVX; 44.3 µM (inactive) in the test on MOLT-4; 49.9 µM (inactive) in the test on SR; > 100 µM (inactive) in the test with TK-10. For the same compound, the GI50 was > 100 µM (inactive) in the test with SK-OV-3; > 100 µM (inactive) in the test with UACC-62; 66.8 µM (inactive) with RPMI-8226; > 100 µM (inactive) in the test on SNB-19; > 100 µM (inactive) with A549.
As to `CN(C)c1ccc(C(C#N)NNC(=O)Cc2ccccc2)cc1` (stereo not given), the GI50 in the test with HCT-116, in the test with CAKI-1, in the test on OVCAR-4, in the test with K562, in the test on RXF 393 and in the test on SK-MEL-2 was > 100 µM (inactive) each time. In addition, the GI50 in the test on SF-539, in the test on HOP-92, in the test with MOLT-4, in the test on SR, in the test on TK-10 and with SK-OV-3 was > 100 µM (inactive) throughout. Besides, the GI50 in the test on UACC-62, in the test with RPMI-8226 and in the test with A549 was > 100 µM (inactive) throughout.
For the compound `CCN(CC)CCCNC(=O)Cc1ccccc1Nc1c(Cl)cccc1Cl`, the GI50 was 14 µM (inactive) with HCT-116; 15.7 µM (inactive) with OVCAR-4; 5.6 µM (inactive) with K562; 15.8 µM (inactive) in the test with RXF 393; 14.2 µM (inactive) in the test with SF-539; 13.7 µM (inactive) with EKVX. Also, the GI50 in the test with MOLT-4 was 11.4 µM (inactive); in the test with SR, 9.48 µM (inactive); in the test on TK-10, 13.7 µM (inactive); with SK-OV-3 it was 15.3 µM (inactive); in the test with UACC-62, 14.3 µM (inactive); with RPMI-8226, 12.4 µM (inactive). The GI50 with SNB-19 was 16.9 µM (inactive); with A549, 18.3 µM (inactive).
`CC(N)C(C)c1ccccc1` (stereo not given): the GI50 with HCT-116, in the test on CAKI-1, with OVCAR-4, in the test on K562, with RXF 393 and with SK-MEL-2 was > 100 µM (inactive) throughout. Moreover, the GI50 in the test with SF-539, with HOP-92, in the test with EKVX, in the test with MOLT-4, with SR and in the test with TK-10 was > 100 µM (inactive) each time. Moreover, the GI50 in the test on SK-OV-3, in the test with UACC-62, with RPMI-8226, in the test on SNB-19 and in the test with A549 was > 100 µM (inactive) throughout.
On to `COC(=O)C1=CC(=O)C(C(=O)Nc2ccc(OC)cc2)C(c2ccccc2)O1` (stereo not given), for which the GI50 with HCT-116 was 28.6 µM (inactive); with CAKI-1, 25.2 µM (inactive); in the test on OVCAR-4, 28.4 µM (inactive); in the test with K562, > 67.6 µM (inactive); with RXF 393 it was 23.5 µM (inactive); in the test with SK-MEL-2, > 81.7 µM (inactive). Moreover, the GI50 was 21.4 µM (inactive) in the test on SF-539; 24 µM (inactive) in the test on HOP-92; 44.1 µM (inactive) with EKVX; > 74.5 µM (inactive) in the test on MOLT-4; 44.5 µM (inactive) in the test with SR; 31.6 µM (inactive) with TK-10. The GI50 in the test with SK-OV-3 was 28.8 µM (inactive); in the test with UACC-62, 32.2 µM (inactive); in the test on RPMI-8226 it was 54.5 µM (inactive); with SNB-19, 18.1 µM (inactive); with A549, 28.1 µM (inactive).
